Measurements taken from the supplement of paper PMC8671470.

Key:
Conditions in all cases: 72 h
[1] = tested on: MV4-11
Outline: (§1)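 For the IC50, dose–response curves were fitted with a log-logistic model. The data came from fifteen myeloid leukaemia cell lines grown in RPMI 1640 at densities in the linear growth range and incubated in 384-well plates for 72 h at 37 °C under 5% CO2. Doses were five tenfold steps from 1 to 10,000 nM in duplicate, and luminescent ATP viability was normalised to vehicle and to a positive control at 10 µM before four-parameter fitting.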

[2] = tested on: K-562
Outline: as §1

[3] = tested on: Mono-Mac-6
Outline: as §1

[4] = tested on: KCL-22
Outline: as §1

[5] = tested on: ML-2
Outline: as §1

[6] = tested on: KG-1
Outline: as §1

[7] = tested on: LAMA-84
Outline: as §1

[8] = tested on: MOLM-13
Outline: as §1

[9] = tested on: KU-812
Outline: as §1

[10] = tested on: HL-60
Outline: as §1

[11] = tested on: THP-1
Outline: as §1

[12] = tested on: SHI-1
Outline: as §1

[13] = tested on: HEL
Outline: as §1

[14] = tested on: NOMO-1
Outline: as §1

[15] = tested on: BV-173
Outline: as §1

[16] = tested on: MV4-11; assay: cell viability (% survival relative to DMSO control, bortezomib = 0%); higher = less cytotoxic
Outline: (§2)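 Percent survival is reported as the mean of duplicate wells. Cells from 10 AML and 5 CML lines were plated in 384-well plates containing compounds at 1, 10, 100, 1000 or 10000 nM and kept for 72 h at 37 °C in 5% CO2. Readout used CellTiter-Glo luminescence, scaled so that vehicle equals 100% and a 10 µM positive control equals 0%.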

[17] = tested on: K-562; assay: as above
Outline: as §2

[18] = tested on: Mono-Mac-6; assay: as above
Outline: as §2

[19] = tested on: KCL-22; assay: as above
Outline: as §2

[20] = tested on: ML-2; assay: as above
Outline: as §2

[21] = tested on: KG-1; assay: as above
Outline: as §2

[22] = tested on: LAMA-84; assay: as above
Outline: as §2

[23] = tested on: MOLM-13; assay: as above
Outline: as §2

[24] = tested on: KU-812; assay: as above
Outline: as §2

[25] = tested on: HL-60; assay: as above
Outline: as §2

[26] = tested on: THP-1; assay: as above
Outline: as §2

[27] = tested on: SHI-1; assay: as above
Outline: as §2

[28] = tested on: HEL; assay: as above
Outline: as §2

[29] = tested on: NOMO-1; assay: as above
Outline: as §2

[30] = tested on: BV-173; assay: as above
Outline: as §2

For `Cl.OC[C@H]1NC[C@H](O)[C@@H](O)[C@H]1O` [Migalastat], the “IC50 (cell viability)” value [1] was > 10 µM, the “IC50 (cell viability)” value [2] was > 10 µM and the “IC50 (cell viability)” value [3] was > 10 µM. For the same compound, the “IC50 (cell viability)” value [4] was > 10 µM, the “IC50 (cell viability)” value [5] was > 10 µM and the “IC50 (cell viability)” value [6] was > 10 µM. The “IC50 (cell viability)” value [7] was > 10 µM, the “IC50 (cell viability)” value [8] was > 10 µM and the “IC50 (cell viability)” value [9] was > 10 µM. For the same compound, the “IC50 (cell viability)” value [10] was > 10 µM, the “IC50 (cell viability)” value [11] was > 10 µM and the “IC50 (cell viability)” value [12] was > 10 µM. For the same compound, the “IC50 (cell viability)” value [13] was > 10 µM, the “IC50 (cell viability)” value [14] was > 10 µM and the “IC50 (cell viability)” value [15] was > 10 µM. It also gave a cell viability ([16]; 1 nM) of 117%, a cell viability ([16]; 10 nM) of 95.7% and a cell viability ([16]; 100 nM) of 100%. It also gave a cell viability ([16]; 1000 nM) of 104%, a cell viability ([16]; 10000 nM) of 97.2% and a cell viability ([17]; 1 nM) of 109%. It also gave a cell viability ([17]; 10 nM) of 94.7%, a cell viability ([17]; 100 nM) of 107% and a cell viability ([17]; 1000 nM) of 101%. It also gave a cell viability ([17]; 10000 nM) of 99.1%, a cell viability ([18]; 1 nM) of 102% and a cell viability ([18]; 10 nM) of 87.4%. The cell viability ([18]; 100 nM) was 104%, the cell viability ([18]; 1000 nM) was 98.3% and the cell viability ([18]; 10000 nM) was 103%. For the same compound, the cell viability ([19]; 1 nM) was 95.6%, the cell viability ([19]; 10 nM) was 90.2% and the cell viability ([19]; 100 nM) was 101%. The cell viability ([19]; 1000 nM) was 102%, the cell viability ([19]; 10000 nM) was 100% and the cell viability ([20]; 1 nM) was 98.5%. The cell viability ([20]; 10 nM) was 97.1%, the cell viability ([20]; 100 nM) was 111% and the cell viability ([20]; 1000 nM) was 103%. It also gave a cell viability ([20]; 10000 nM) of 100%, a cell viability ([21]; 1 nM) of 104% and a cell viability ([21]; 10 nM) of 98.9%. For the same compound, the cell viability ([21]; 100 nM) was 107%, the cell viability ([21]; 1000 nM) was 99.6% and the cell viability ([21]; 10000 nM) was 96.3%. It also gave a cell viability ([22]; 1 nM) of 106%, a cell viability ([22]; 10 nM) of 96.8% and a cell viability ([22]; 100 nM) of 103%. It also gave a cell viability ([22]; 1000 nM) of 99%, a cell viability ([22]; 10000 nM) of 92.7% and a cell viability ([23]; 1 nM) of 83.6%. For the same compound, the cell viability ([23]; 10 nM) was 89.2%, the cell viability ([23]; 100 nM) was 104% and the cell viability ([23]; 1000 nM) was 116%. For the same compound, the cell viability ([23]; 10000 nM) was 101%, the cell viability ([24]; 1 nM) was 92.1% and the cell viability ([24]; 10 nM) was 92.3%. For the same compound, the cell viability ([24]; 100 nM) was 99.4%, the cell viability ([24]; 1000 nM) was 98.1% and the cell viability ([24]; 10000 nM) was 98.5%. The cell viability ([25]; 1 nM) was 92.9%, the cell viability ([25]; 10 nM) was 86.1% and the cell viability ([25]; 100 nM) was 113%. For the same compound, the cell viability ([25]; 1000 nM) was 106%, the cell viability ([25]; 10000 nM) was 106% and the cell viability ([26]; 1 nM) was 102%. The cell viability ([26]; 10 nM) was 99.1%, the cell viability ([26]; 100 nM) was 104% and the cell viability ([26]; 1000 nM) was 98.7%. The cell viability ([26]; 10000 nM) was 90.9%, the cell viability ([27]; 1 nM) was 113% and the cell viability ([27]; 10 nM) was 96.2%. For the same compound, the cell viability ([27]; 100 nM) was 109%, the cell viability ([27]; 1000 nM) was 102% and the cell viability ([27]; 10000 nM) was 107%. For the same compound, the cell viability ([28]; 1 nM) was 99.2%, the cell viability ([28]; 10 nM) was 99.3% and the cell viability ([28]; 100 nM) was 101%. It also gave a cell viability ([28]; 1000 nM) of 104%, a cell viability ([28]; 10000 nM) of 101% and a cell viability ([29]; 1 nM) of 101%. The cell viability ([29]; 10 nM) was 103%, the cell viability ([29]; 100 nM) was 104% and the cell viability ([29]; 1000 nM) was 100%. It also gave a cell viability ([29]; 10000 nM) of 94.8%, a cell viability ([30]; 1 nM) of 97.1% and a cell viability ([30]; 10 nM) of 102%. The cell viability ([30]; 100 nM) was 113%, the cell viability ([30]; 1000 nM) was 105% and the cell viability ([30]; 10000 nM) was 87.6%.
